Reference: US20230047816A1 (priority 2018, published 2023)

Molecular target: Recombinant full length human PFKFB3 (Homo sapiens, UniProt Q16875)
Experiment: PFKFB3 kinase activity assay (ADP production, ADP-Glo)

Chain of Recombinant full length human PFKFB3 (Q16875 whole entry): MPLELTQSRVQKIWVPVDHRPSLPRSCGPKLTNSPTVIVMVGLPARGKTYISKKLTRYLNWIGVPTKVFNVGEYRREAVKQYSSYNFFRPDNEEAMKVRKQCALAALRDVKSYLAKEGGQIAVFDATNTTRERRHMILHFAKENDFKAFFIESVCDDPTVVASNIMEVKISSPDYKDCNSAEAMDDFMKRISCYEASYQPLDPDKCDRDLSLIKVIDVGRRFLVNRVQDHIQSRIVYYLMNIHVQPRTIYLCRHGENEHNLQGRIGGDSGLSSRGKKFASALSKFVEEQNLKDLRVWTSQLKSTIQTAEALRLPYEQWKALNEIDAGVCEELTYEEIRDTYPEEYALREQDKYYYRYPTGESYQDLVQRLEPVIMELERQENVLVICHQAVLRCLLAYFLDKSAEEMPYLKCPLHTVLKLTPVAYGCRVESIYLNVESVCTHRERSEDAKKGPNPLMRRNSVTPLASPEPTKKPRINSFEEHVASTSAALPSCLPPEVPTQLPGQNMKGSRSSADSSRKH

IC50 [µM] | SMILES
2 to 5 | CN(C)C(=O)c1cc(O)c(C(=O)N=S(C)(C)=O)cc1C(=O)Nc1cc(-c2ccc(Cl)cc2Cl)ccc1C(=O)O [Example 42, 2′,4′-dichloro-3-(5-((dimethyl(oxo)-λ^6-sulfanylidene)carbamoyl)-2-(dimethylcarbamoyl)-4-hydroxybenzamido)-[1,1′-biphenyl]-4-carboxylic acid]
0.5 to 2 | CS(C)(=O)=NC(=O)c1ccc(C(=O)O)c(C(=O)Nc2cc(-c3ccc(F)c(F)c3)ccc2C(=O)O)c1 [Example 36, 3-(2-carboxy-5-{[methyl(methylidene)oxo-λ^6-sulfanyl]carbamoyl}benzamido)-3′,4′-difluoro-[1,1′-biphenyl]-4-carboxylic acid]
< 20 | O=C(O)c1cc(-c2cncnc2)ccc1N1C(=O)c2ccc(-c3c[nH]nn3)cc2C1=O [Example 64]
< 20 | O=C(O)c1ccc(C(=O)O)c(C(=O)Nc2nc(-c3ccccc3)cs2)c1 [Example 40, 2-[(4-phenyl-1,3-thiazol-2-yl)carbamoyl]benzene-1,4-dicarboxylic acid]
< 0.5 | CN(C)CCCOC(=O)c1ccc(-c2ccc(Cl)cc2Cl)cc1NC(=O)c1cc(C(=O)O)c(O)cc1C(=O)O [Example 54, 2-[(2′,4′-dichloro-4-{[3-(dimethylamino)propoxy]carbonyl}-[1,1′-biphenyl]-3-yl)carbamoyl]-5-hydroxybenzene-1,4-dicarboxylic acid]
< 20 | COc1ccc(-c2c(C)sc(N3C(=O)c4ccc(C(=O)NCC(=O)O)cc4C3=O)c2C#N)cc1 [compound 149, 2-(2-(3-cyano-4-(4-methoxyphenyl)-5-methylthiophen-2-yl)-1,3-dioxoisoindoline-5-carboxamido)acetic acid]
< 0.5 | CC1(C)CCC(c2ccc(C(=O)O)c(NC(=O)c3cc(C(=O)O)c(F)cc3C(=O)O)c2)CC1 [Example 64, 2-{[2-carboxy-5-(4,4-dimethylcyclohexyl)phenyl]carbamoyl}-5-fluorobenzene-1,4-dicarboxylic acid]
0.5 to 2 | O=C(O)c1ccc(-c2ccc(F)c(F)c2)cc1N1Cc2ccc(-c3nn[nH]c3-c3ccccc3)cc2C1=O [compound 163, 3′,4′-difluoro-3-(1-oxo-6-(5-phenyl-1H-1,2,3-triazol-4-yl)isoindolin-2-yl)biphenyl-4-carboxylic acid]
0.5 to 2 | O=C(O)c1ccc2c(c1)C(=O)N(c1cc(-c3ccccc3)ccc1-c1nnn[nH]1)C2=O [Example 43]
< 0.5 | COc1ccc(-c2c(C)sc(NC(=O)c3cc(O)c(C(=O)O)cc3C(=O)O)c2C#N)cc1 [Example 33, 4-((3-cyano-4-(4-methoxyphenyl)-5-methylthiophen-2-yl)carbamoyl)-6-hydroxyisophthalic acid]
< 0.5 | O=C(O)c1cc(C(=O)Nc2cc(N3CC4CCC3C4)ccc2C(=O)O)c(C(=O)O)cc1O (stereo not drawn) [Example 61, 2-[(5-{2-azabicyclo[2.2.1]heptan-2-yl}-2-carboxyphenyl)carbamoyl]-5-hydroxybenzene-1,4-dicarboxylic acid]
0.5 to 2 | O=C(O)c1ccc(C(=O)O)c(C(=O)Nc2ncc([N+](=O)[O-])s2)c1 [Example 39, 2-[(5-nitro-1,3-thiazol-2-yl)carbamoyl]benzene-1,4-dicarboxylic acid]
< 0.5 | O=C(O)c1cc(C(=O)Nc2cc(-c3ccc(F)c(F)c3)ccc2O)c(C(=O)O)cc1O [Example 37, 2-({3′,4′-difluoro-4-hydroxy-[1,1′-biphenyl]-3-yl}carbamoyl)-5-hydroxybenzene-1,4-dicarboxylic acid]

The remaining lines, values behind:

SMILES | IC50 [µM]
CS(=O)(=O)NC(=O)c1ccc2c(c1)C(=O)N(c1cc(-c3ccccc3)ccc1C(=O)O)C2=O [Example 25, 3-(5-Methanesulfonylaminocarbonyl-1,3-dioxo-1,3-dihydroisoindol-2-yl)biphenyl-4-carboxylic Acid] | < 0.5
Cc1ccc(S(=O)(=O)Nc2ccc3c(c2)C(=O)N(c2cc(-c4ccc(F)c(F)c4)ccc2C(=O)O)C3)cc1 [Compound 132, 3′,4′-Difluoro-3-[1-oxo-6-(toluene-4-sulfonylamino)-1,3-dihydro-isoindol-2-yl]-biphenyl-4-carboxylic acid] | 5 to 20
O=C(O)c1ccc(-c2ccc(F)c(F)c2)cc1NC(=O)c1ccc(-c2cnn[nH]2)cc1C(=O)O [Example 22, 3-[2-carboxy-4-(1H-1,2,3-triazol-5-yl)benzamido]-3′,4′-difluoro-[1,1′-biphenyl]-4-carboxylic acid] | < 0.5
COC(=O)c1ccc(-c2ccc(F)c(F)c2)cc1N1Cc2ccc(C(=O)NS(C)(=O)=O)cc2C1=O [Compound 105, 3′,4′-Difluoro-3-(6-methanesulfonylaminocarbonyl-1-oxo-1,3-dihydroisoindol-2-yl)biphenyl-4-carboxylic acid methyl ester] | < 20
O=C(O)c1ccc2c(c1)C(=O)N(c1cc(-c3ccc(F)c(F)c3F)ccc1C(=O)O)C2=O [Compound 139, 2-(4-Carboxy-2′,3′,4′-trifluoro[1,1′-biphenyl]-3-yl)-1,3-dioxo-2,3-dihydro-1H-isoindole-5-carboxylic Acid] | < 0.5
NC(=O)c1ccc(-c2ccc(F)c(F)c2)cc1N1Cc2ccc(-c3nnn[nH]3)cc2C1=O [Compound 101, 3′,4′-Difluoro-3-[1-oxo-6-(1H-tetrazol-5-yl)-1,3-dihydroisoindol-2-yl]biphenyl-4-carboxylic acid amide] | 5 to 20
O=C(O)c1ccc(-c2ccc(F)c(F)c2)cc1NC(=O)c1cc(-c2cnn[nH]2)ccc1C(=O)O [Example 21, 3-(2-carboxy-5-(1H-1,2,3-triazol-5-yl)benzamido)-3′,4′-difluoro-[1,1′-biphenyl]-4-carboxylic acid] | < 0.5
CCCCOC(=O)c1ccc2c(c1)C(=O)N(c1cc(-c3ccc(F)c(F)c3)ccc1C(=O)O)C2 [Compound 128, 2-(4-Carboxy-3′,4′-difluoro-biphenyl-3-yl)-3-oxo-2,3-dihydro-1H-isoindole-5-carboxylic acid butyl ester] | 5 to 20
COc1ccc(-c2c(C)sc(N3C(=O)c4ccc(C(=O)N[C@@H](CCC(N)=O)C(=O)O)cc4C3=O)c2C#N)cc1 [Example 21] | 5 to 20
COc1ccc(-c2c(C)sc(N3C(=O)c4ccc(C(=O)NS(=O)(=O)c5ccccc5)cc4C3=O)c2C#N)cc1 [Example 13, N-{2-[3-Cyano-4-(4-methoxyphenyl)-5-methylthiophen-2-yl]-1,3-dioxo-2,3-dihydro-1H-isoindole-5-carbonyl}-benzenesulfonamide] | 5 to 20
NC(=O)c1ccc(-c2ccc(F)c(F)c2)cc1N1Cc2ccc(C(=O)O)cc2C1=O [Compound 119, 2-(4-Carbamoyl-3′,4′-difluorobiphenyl-3-yl)-3-oxo-2,3-dihydro-1H-isoindole-5-carboxylic acid] | 5 to 20
O=C(O)c1ccc2c(c1)C(=O)N(c1cc(-c3ccc(F)c(F)c3)ccc1C(=O)O)C2 [Compound 126, 2-(4-Carboxy-3′,4′-difluoro-biphenyl-3-yl)-3-oxo-2,3-dihydro-1H-isoindole-5-carboxylic acid] | < 20
O=C(O)c1ccc(-c2cnn[nH]2)cc1CNc1cc(-c2ccc(F)c(F)c2)ccc1C(=O)O [Example 7, 3-({[2-carboxy-5-(2H-1,2,3-triazol-4-yl)phenyl]methyl}amino)-3′,4′-difluoro-[1,1′-biphenyl]-4-carboxylic acid] | 5 to 20
CC(C)(C)C(=O)OCn1cc(-c2ccc3c(c2)C(=O)N(c2ccc(-c4ccccc4)cc2C(=O)O)C3=O)nn1 [Example 30] | 2 to 5
